Laboratory results from patent US20130109758A1, “BISPHENOL DERIVATIVE THERAPEUTICS AND METHODS FOR THEIR USE” (THE UNIVERSITY OF BRITISH COLUMBIA, priority 2010, published 2013).

These molecules were tested against T1, androgen receptor (AR) (Homo sapiens, UniProt P10275, T878A) (assay: LNCaP PSA (6.1 kb)-luciferase assay (R1881-induced)). Details: LNCaP PSA (6.1 kb)-luciferase assay, dose response against DMSO and EPI-001 controls (FIGS. 1-6).
T1 construct: LNCaP cells express endogenous AR and secrete prostate-specific antigen (PSA); endogenous in cells; host or cells: LNCaP human prostate cancer cells
T1 sequence (P10275 1-920 T878A): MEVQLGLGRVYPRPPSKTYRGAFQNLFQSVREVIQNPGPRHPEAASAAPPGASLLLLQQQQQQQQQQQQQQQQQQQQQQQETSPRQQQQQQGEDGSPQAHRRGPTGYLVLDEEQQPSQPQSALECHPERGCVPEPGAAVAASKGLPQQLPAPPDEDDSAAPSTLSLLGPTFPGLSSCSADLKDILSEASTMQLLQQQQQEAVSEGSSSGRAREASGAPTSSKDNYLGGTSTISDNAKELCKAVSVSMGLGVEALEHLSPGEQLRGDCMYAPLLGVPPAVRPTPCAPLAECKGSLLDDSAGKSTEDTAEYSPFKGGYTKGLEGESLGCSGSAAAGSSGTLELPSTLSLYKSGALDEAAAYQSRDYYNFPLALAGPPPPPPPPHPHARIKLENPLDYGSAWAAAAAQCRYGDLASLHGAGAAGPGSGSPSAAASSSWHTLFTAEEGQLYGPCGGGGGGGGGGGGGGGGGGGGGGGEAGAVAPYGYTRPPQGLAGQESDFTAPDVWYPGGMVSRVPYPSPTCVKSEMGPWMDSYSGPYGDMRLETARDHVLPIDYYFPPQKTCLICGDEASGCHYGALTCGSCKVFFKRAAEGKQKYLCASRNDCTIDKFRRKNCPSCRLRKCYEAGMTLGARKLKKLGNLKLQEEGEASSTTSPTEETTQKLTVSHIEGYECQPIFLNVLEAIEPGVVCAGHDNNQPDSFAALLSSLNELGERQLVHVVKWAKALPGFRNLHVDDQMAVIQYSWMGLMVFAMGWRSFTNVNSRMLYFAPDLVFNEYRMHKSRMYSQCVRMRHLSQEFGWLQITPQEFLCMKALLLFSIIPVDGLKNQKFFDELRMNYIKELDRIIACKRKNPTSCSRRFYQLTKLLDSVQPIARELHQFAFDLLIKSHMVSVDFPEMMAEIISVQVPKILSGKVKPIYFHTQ
Format: cell-based
Description: LNCaP cells were employed initially for all experiments because they are well-differentiated human prostate cancer cells in which ligand-independent activation of the AR by FSK has been characterized (Nazareth et al 1996 J. Biol. Chem. 271, 19900-19907; and Sadar 1999 J. Biol. Chem. 274, 7777-7783). LNCaP cells express endogenous AR and secrete prostate-specific antigen (PSA) (Horoszewicz et al 1983 Cancer Res. 43, 1809-1818). LNCaP cells can be grown either as monolayers in cell culture or as tumors in the well-characterized xenograft model that progresses to androgen independence in castrated hosts (Sato et al 1996 J. Steroid Biochem. Mol. Biol. 58, 139-146; Gleave et al 1991 Cancer Res. 51, 3753-3761; Sato et al 1997 Cancer Res. 57, 1584-1589; and Sadar et al 2002 Mol. Cancer. Ther. 1(8), 629-637). […] Small molecules that specifically target the AR-NTD should have no effect on PC3 cells. This means that they should not alter the proliferation of PC3 cells if they specifically block the AR to mediate their inhibitory effects. R1881 was employed since it is stable and avoids problems associated with the labile physiological ligand dihydrotestosterone (DHT). Reporter specificity may be determined using several alternative reporter gene constructs. Some well characterized ARE-driven reporter gene constructs that have been used extensively are the PSA (6.1 kb) enhance/promoter which contains several AREs and is highly inducible by androgens as well as by FSK (Ueda et al 2002 A J. Biol. Chem. 277, 7076-7085) and the ARR3-thymidine kinase (tk)-luciferase, which is an artificial reporter construct that contains three tandem repeats of the rat probasin ARE1 and ARE2 regions upstream of a luciferase reporter (Snoek et al 1996 J. Steroid Biochem. Mol. Biol. 59, 243-250).
LNCaP cells were transiently cotransfected with PSA (6.1 kb)-luciferase (0.25 μg/well) in 24-well plates for 24 h prior to pre-treatment with compounds for 1 hour before the addition of synthetic androgen, R1881 (1 nM) to induce PSA production or vehicle. The total amount of plasmid DNA transfected was normalized to 0.75 μg/well by the addition of the empty vector. After 48 h of incubation with R1881, the cells were harvested, and relative luciferase activity was determined. Test compounds were added to the cells at various concentrations and activity for each treatment was normalized to the predicted maximal activity induction (in the absence of test compounds, vehicle only). Plotting of sigmoidal curves (Boltzmann Function) and IC50 calculations were done using OriginPro 8.1 Software (Northampton, Mass., USA).
Using the LNCaP PSA (6.1 kb)-luciferase assay described above, various compounds described herein were tested against DMSO and EPI-001 controls. In FIG. 1, a comparison is made between EPI-100, EPI-101, EPI-102 and DMSO from 1 to 35 μM. […] In FIG. 3A, EPI-107 is compared to DMSO and EPI-001 at 2.5 μM to 10 μM. In FIG. 3B, EPI-108 is compared to DMSO at 0.5 μM to 35 μM. In FIG. 4A, EPI-114 is compared to DMSO and EPI-001 at 5 μM and 10 μM. In FIG. 4B, EPI-116 is compared to DMSO and EPI-001 at 1 μM to 30 μM.

Row | Compound | androgen receptor inhibitory activity
1 | O=C(c1ccc(OCC(O)CCl)cc1)c1ccc(OCC(O)CCl)cc1 (stereo not drawn) [EPI-114] | showed androgen receptor inhibitory activity
2 | C#CCOc1ccc(C(=O)c2ccc(OCC#C)cc2)cc1 [EPI-109] | showed androgen receptor inhibitory activity
3 | OC(CCl)COc1ccc(-c2ccc(OCC(O)CCl)cc2)cc1 (stereo not drawn) [EPI-3000] | showed androgen receptor inhibitory activity
4 | O=C(c1ccc(OCCCCl)cc1)c1ccc(OCCCCl)cc1 [EPI-116] | showed androgen receptor inhibitory activity
5 | OC(CCl)COc1ccc(Sc2ccc(OCC(O)CCl)cc2)cc1 (stereo not drawn) [EPI-400] | showed androgen receptor inhibitory activity
6 | OC(CCl)COc1ccc(Oc2ccc(OCC(O)CCl)cc2)cc1 (stereo not drawn) [EPI-300] | showed androgen receptor inhibitory activity
7 | C#CCOc1ccc(C(=O)c2ccc(O)cc2)cc1 [EPI-106] | showed androgen receptor inhibitory activity
8 | C#CCOc1ccc(C(=O)c2ccc(OCCCCl)cc2)cc1 [EPI-107] | showed androgen receptor inhibitory activity
9 | C#CCOc1ccc(C(=O)c2ccc(OCCCBr)cc2)cc1 [EPI-108] | showed androgen receptor inhibitory activity
10 | O=C(c1ccc(O)cc1)c1ccc(OCCCCl)cc1 [EPI-117] | showed androgen receptor inhibitory activity
11 | C#CCOc1ccc(C(=O)c2ccc(OCC(O)CO)cc2)cc1 (stereo not drawn) [EPI-111] | showed androgen receptor inhibitory activity

Same assay, conditions: LNCaP cells transfected with PSA (6.1 kb)-luciferase, 1 h pre-treatment with compound, R1881 1 nM, 48 h

Row | Compound | EXPERIMENTAL DATA (activity in the LNCaP PSA (6.1 kb)-luciferase assay)
12 | C#CCOc1ccc(C(=O)c2ccc(OCCCBr)cc2)cc1 [drawing 507] | Active
13 | C#CCOc1ccc(C(=O)c2ccc(O)cc2)cc1 [drawing 505] | Active
14 | C#CCOc1ccc(C(=O)c2ccc(OCC(O)CO)cc2)cc1 (centres unmarked) [drawing 509] | Active
15 | C#CCOc1ccc(C(=O)c2ccc(OC[C@H](O)CCl)cc2)cc1 | Active
16 | O=C(c1ccc(O)cc1)c1ccc(OCCCCl)cc1 [drawing 512] | Active
17 | C#CCOc1ccc(C(=O)c2ccc(OCCCCl)cc2)cc1 [drawing 506] | Active
18 | C#CCOc1ccc(C(=O)c2ccc(OCC(O)CCl)cc2)cc1 (centres unmarked) | Active
19 | OC(CCl)COc1ccc(Oc2ccc(OCC(O)CCl)cc2)cc1 (centres unmarked) [drawing 513] | Active
20 | CC(C)(c1ccc(OCC(O)CO)cc1)c1ccc(OCC(O)CCl)cc1 (centres unmarked) [reference compound] | Active (positive control)
21 | C#CCOc1ccc(C(=O)c2ccc(OC[C@@H](O)CCl)cc2)cc1 | Active
22 | OC(CCl)COc1ccc(Sc2ccc(OCC(O)CCl)cc2)cc1 (centres unmarked) [drawing 514] | Active
23 | C#CCOc1ccc(C(=O)c2ccc(OCC#C)cc2)cc1 [drawing 508] | Active
24 | OC(CCl)COc1ccc(-c2ccc(OCC(O)CCl)cc2)cc1 (centres unmarked) [drawing 515] | Active
25 | O=C(c1ccc(OCC(O)CCl)cc1)c1ccc(OCC(O)CCl)cc1 (centres unmarked) [drawing 510] | Active
26 | O=C(c1ccc(OCCCCl)cc1)c1ccc(OCCCCl)cc1 [drawing 511] | Active
